Measured values as given in patent publication US6114310A, “Efflux pump inhibitors” (priority 1998, dated 2000).

Tested on: Pseudomonas aeruginosa PAM1001
Test: microbe, parasite or virus in culture
Type: cell-based
Method: The activity of efflux pump inhibitors (EPI) in combination with fluoroquinolones, such as levofloxacin, is assessed by the checkerboard assay (Antimicrobial Combinations. In Antibiotics in Laboratory Medicine, Ed. Victor Lorian, M. D., Fourth edition, 1996, pp 333-338) using broth microdilution method performed as recommended by the NCCLS (National Committee for Clinical Laboratory Standards (NCCLS). 1997. Methods for Dilution of Antimicrobial Susceptibility Tests for Bacteria That Grow Aerobically--Fourth Edition; Approved Standard. NCCLS Document M7-A4, Vol 17 No.2). The test organism used is Pseudomonas aeruginosa PAM1001.
In this assay, multiple dilutions of two drugs, namely the EPI and levofloxacin, are being tested, alone and in combination, at concentrations equal to, above and below their respective minimal inhibitory concentrations (MICs).
Stock solutions are further diluted, according to the needs of a particular assay, in Mueller Hinton Broth (MHB). Stock solution can be stored at -80° C. Quinolones are solubilized according to the instructions of the manufacturers, at a concentration of 1 mg/ml. They are then further diluted in MHB. Stock solution can be stored at -80° C.
The checkerboard assay is performed in microtiter plates. Levofloxacin is diluted in the x axis, each column containing a single concentration of levofloxacin. The EPI is diluted in the y axis, each row containing an equal concentration of EPI. The result of these manipulations is that each well of the microtiter plate contains a unique combination of concentrations of the two agents. Each EPI are tested independently.
The assay is performed in MHB with a final bacterial inoculum of 5×10^5 CFU/ml (from an early-log phase culture). Microtiter plates are incubated during 20 h at 35° C. and are read using a microtiterplate reader (Molecular Devices) at 650 nm as well as visual observation using a microtiterplate reading mirror.

[1] = Table 1, EPI Conc. μg/ml (number not given; column between 10 and 40 μg/ml)
[2] = Table 2, EPI Conc. μg/ml (number not given; column between 10 and 40 μg/ml)

Compound | Levofloxacin MIC Against P. aeruginosa PAM1001 in Presence of Efflux Pump Inhibitor (EPI), Minimum Inhibitory Concentration (Table 1, EPI Conc. 0 μg/ml) | Levofloxacin MIC Against P. aeruginosa PAM1001 in Presence of Efflux Pump Inhibitor (EPI), Minimum Inhibitory Concentration (Table 1, EPI Conc. 0.625 μg/ml) | Levofloxacin MIC Against P. aeruginosa PAM1001 in Presence of Efflux Pump Inhibitor (EPI), Minimum Inhibitory Concentration (Table 1, EPI Conc. 5 μg/ml) | Levofloxacin MIC Against P. aeruginosa PAM1001 in Presence of Efflux Pump Inhibitor (EPI), Minimum Inhibitory Concentration (Table 1, EPI Conc. 10 μg/ml) | Levofloxacin MIC Against P. aeruginosa PAM1001 in Presence of Efflux Pump Inhibitor (EPI), Minimum Inhibitory Concentration (Table 1, EPI Conc. 40 μg/ml) | Levofloxacin MIC Against P. aeruginosa PAM1001 in Presence of Efflux Pump Inhibitor (EPI), Minimum Inhibitory Concentration [1] | Levofloxacin MIC Against P. aeruginosa PAM1001 in Presence of Efflux Pump Inhibitor (EPI), Minimum Inhibitory Concentration (Table 2, EPI Conc. 0 μg/ml) | Levofloxacin MIC Against P. aeruginosa PAM1001 in Presence of Efflux Pump Inhibitor (EPI), Minimum Inhibitory Concentration (Table 2, EPI Conc. 0.625 μg/ml) | Levofloxacin MIC Against P. aeruginosa PAM1001 in Presence of Efflux Pump Inhibitor (EPI), Minimum Inhibitory Concentration (Table 2, EPI Conc. 5 μg/ml) | Levofloxacin MIC Against P. aeruginosa PAM1001 in Presence of Efflux Pump Inhibitor (EPI), Minimum Inhibitory Concentration (Table 2, EPI Conc. 40 μg/ml) | Levofloxacin MIC Against P. aeruginosa PAM1001 in Presence of Efflux Pump Inhibitor (EPI), Minimum Inhibitory Concentration (Table 2, EPI Conc. […]) | Levofloxacin MIC Against P. aeruginosa PAM1001 in Presence of Efflux Pump Inhibitor (EPI), Minimum Inhibitory Concentration [2] | further results
4-(O-Methylcarboxyamido)phenylalanyl-Nα -methylornithine 2-naphthylamide [Compound 32 (Table 1)] | 4 mg/L | 4 mg/L | 0.50 mg/L | 0.125 mg/L | 0.06 mg/L | 0.06 mg/L | 4 mg/L | 4 mg/L | 2 mg/L | 0.03 mg/L | 4 mg/L | 0.25 mg/L | Levofloxacin MIC Against P. aeruginosa PAM1001 in Presence of Efflux Pump Inhibitor (EPI), Minimum Inhibitory Concentration (Table 2, EPI Conc. 10 μg/ml): 0.50 mg/L
NCCCC(N)C(=O)N(CCCc1ccccc1)CCC(=O)Nc1ccc2ccccc2c1 (stereo not drawn) [Compound 21 (Table 3), Omithyl-β-(N-phenylpropyl)alanine 2-naphthylamide] | 4 mg/L | 4 mg/L | 1 mg/L | 1 mg/L | 0.25 mg/L | 0.50 mg/L | 4 mg/L | 4 mg/L | 2 mg/L | 0.03 mg/L | 4 mg/L | 0.03 mg/L | Levofloxacin MIC Against P. aeruginosa PAM1001 in Presence of Efflux Pump Inhibitor (EPI), Minimum Inhibitory Concentration (Table 3, EPI Conc. 0 μg/ml): 4 mg/L; Levofloxacin MIC Against P. aeruginosa PAM1001 in Presence of Efflux Pump Inhibitor (EPI), Minimum Inhibitory Concentration (Table 3, EPI Conc. 0.625 μg/ml): 4 mg/L; Levofloxacin MIC Against P. aeruginosa PAM1001 in Presence of Efflux Pump Inhibitor (EPI), Minimum Inhibitory Concentration (Table 3, EPI Conc. 5 μg/ml): 0.03 mg/L; Levofloxacin MIC Against P. aeruginosa PAM1001 in Presence of Efflux Pump Inhibitor (EPI), Minimum Inhibitory Concentration (Table 3, EPI Conc. 10 μg/ml): 0.03 mg/L; Levofloxacin MIC Against P. aeruginosa PAM1001 in Presence of Efflux Pump Inhibitor (EPI), Minimum Inhibitory Concentration (Table 3, EPI Conc. […]): 2 mg/L; Levofloxacin MIC Against P. aeruginosa PAM1001 in Presence of Efflux Pump Inhibitor (EPI), Minimum Inhibitory Concentration (Table 3, EPI Conc. μg/ml (number not given; column between 10 and 40 μg/ml)): 0.06 mg/L; Levofloxacin MIC Against P. aeruginosa PAM1001 in Presence of Efflux Pump Inhibitor (EPI), Minimum Inhibitory Concentration (Table 4, EPI Conc. 0 μg/ml): 4 mg/L; Levofloxacin MIC Against P. aeruginosa PAM1001 in Presence of Efflux Pump Inhibitor (EPI), Minimum Inhibitory Concentration (Table 4, EPI Conc. 0.625 μg/ml): 4 mg/L; Levofloxacin MIC Against P. aeruginosa PAM1001 in Presence of Efflux Pump Inhibitor (EPI), Minimum Inhibitory Concentration (Table 4, EPI Conc. 5 μg/ml): 0.50 mg/L; Levofloxacin MIC Against P. aeruginosa PAM1001 in Presence of Efflux Pump Inhibitor (EPI), Minimum Inhibitory Concentration (Table 4, EPI Conc. 40 μg/ml): 0.015 mg/L; Levofloxacin MIC Against P. aeruginosa PAM1001 in Presence of Efflux Pump Inhibitor (EPI), Minimum Inhibitory Concentration (Table 4, EPI Conc. […]): 4 mg/L; Levofloxacin MIC Against P. aeruginosa PAM1001 in Presence of Efflux Pump Inhibitor (EPI), Minimum Inhibitory Concentration (Table 4, EPI Conc. μg/ml (number not given; column between 10 and 40 μg/ml)): 0.015 mg/L
C[C@H]1COc2c(N3CCN(C)CC3)c(F)cc3c(=O)c(C(=O)O)cn1c23 [levofloxacin, reference compound] | – | – | – | – | – | – | – | – | – | – | – | – | MIC (Pseudomonas aeruginosa, PAM1001, read-out: MIC of levofloxacin against P. aeruginosa PAM1001): 4 mg/L
